Experimental data: ChEMBL document CHEMBL1146191, “Synthesis and evaluation of novel 1-(2-acylhydrazinocarbonyl)-cycloalkyl carboxamides as interleukin-1beta converting enzyme (ICE) inhibitors” (Bioorg Med Chem Lett, 2006)

Tests used:
Caspase-1 = target: T1, Caspase-1 (Homo sapiens, UniProt P29466); experiment: Inhibition of ICE
T1 sequence (P29466 whole entry): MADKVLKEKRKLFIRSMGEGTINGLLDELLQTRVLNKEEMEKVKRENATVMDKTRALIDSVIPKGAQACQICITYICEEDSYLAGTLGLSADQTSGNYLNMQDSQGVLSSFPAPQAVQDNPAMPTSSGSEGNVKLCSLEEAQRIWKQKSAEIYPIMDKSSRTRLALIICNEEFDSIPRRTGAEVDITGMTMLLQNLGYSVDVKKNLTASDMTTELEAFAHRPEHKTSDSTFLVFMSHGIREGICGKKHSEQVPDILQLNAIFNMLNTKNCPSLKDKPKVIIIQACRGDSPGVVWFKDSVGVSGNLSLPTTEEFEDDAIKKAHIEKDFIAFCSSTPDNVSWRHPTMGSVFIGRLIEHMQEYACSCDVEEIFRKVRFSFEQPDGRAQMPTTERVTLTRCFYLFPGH

Caspase-8 = Caspase-8 (Homo sapiens, UniProt Q14790); experiment: Inhibition of caspase8
Caspase-3 = target: T2, Caspase-3 (Homo sapiens, UniProt P42574); experiment: Inhibition of caspase3
T2 sequence (P42574 whole entry): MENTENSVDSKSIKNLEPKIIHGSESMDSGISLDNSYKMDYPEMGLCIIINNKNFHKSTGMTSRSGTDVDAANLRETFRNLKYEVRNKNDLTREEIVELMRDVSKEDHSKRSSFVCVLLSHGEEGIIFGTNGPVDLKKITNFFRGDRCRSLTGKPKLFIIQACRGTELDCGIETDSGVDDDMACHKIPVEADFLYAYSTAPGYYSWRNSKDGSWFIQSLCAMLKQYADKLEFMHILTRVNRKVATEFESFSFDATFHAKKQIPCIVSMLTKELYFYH

THP-1 = experiment: Inhibition of IL1-beta secretion in human THP1 cells; assay type: functional, cell-based

Sequence of Caspase-8 (Q14790 217-374 limits assumed): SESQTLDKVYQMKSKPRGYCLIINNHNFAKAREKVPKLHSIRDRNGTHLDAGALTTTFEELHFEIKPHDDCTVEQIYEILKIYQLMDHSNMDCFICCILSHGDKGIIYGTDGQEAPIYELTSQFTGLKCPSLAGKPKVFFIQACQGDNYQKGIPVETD
Sequence of Caspase-8 (Q14790 385-479 limits assumed): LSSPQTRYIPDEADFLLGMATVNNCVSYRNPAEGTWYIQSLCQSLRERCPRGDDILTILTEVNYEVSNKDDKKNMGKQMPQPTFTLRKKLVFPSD

Row | SMILES | IC50 (Caspase-1) | IC50 (Caspase-8) | IC50 (Caspase-3) | IC50 (THP-1)
1 | O=C1C[C@H](NC(=O)C2(C(=O)NNC(=O)c3cccc4ccccc34)CCCCC2)C(O)O1 (stereo not given in full) | 50 nM | 70 nM | > 10000 nM | 450 nM
2 | Cc1cccc(C(=O)NNC(=O)C2(C(=O)N[C@H]3CC(=O)OC3O)CCCC2)c1 (stereo not given in full) | 490 nM | 1200 nM | > 10000 nM | 2000 nM
3 | Cc1cccc(C)c1C(=O)NNC(=O)C1(C(=O)N[C@H]2CC(=O)OC2O)CCCCC1 (stereo not given in full) | ≥ 10000 nM | 230 nM | > 10000 nM | ≥ 2500 nM
4 | O=C1C[C@H](NC(=O)C2(C(=O)NNC(=O)c3ccc4ccccc4c3)CCC2)C(O)O1 (stereo not given in full) | 240 nM | 6300 nM | > 10000 nM | 
5 | O=C1C[C@H](NC(=O)C2(C(=O)NNC(=O)c3ccc4ccccc4c3)CCCCC2)C(O)O1 (stereo not given in full) | 90 nM | 2600 nM | > 10000 nM | 790 nM
6 | O=C1C[C@H](NC(=O)C2(C(=O)NNC(=O)c3ccc4ccccc4c3)Cc3ccccc3C2)C(O)O1 (stereo not given in full) | 30 nM | 2100 nM | > 10000 nM | 500 nM
7 | O=C1C[C@H](NC(=O)C2(C(=O)NNC(=O)c3ccc4ccccc4c3)CC2)C(O)O1 (stereo not given in full) | 2900 nM | ≥ 10000 nM | > 10000 nM | 6400 nM
8 | O=C1C[C@H](NC(=O)C2(C(=O)NNC(=O)c3cccc4ccccc34)Cc3ccccc3C2)C(O)O1 (stereo not given in full) | 40 nM | 420 nM | > 10000 nM | 690 nM
9 | O=C1C[C@H](NC(=O)C2(C(=O)NNC(=O)c3cccc4ccccc34)CCCC2)C(O)O1 (stereo not given in full) | 40 nM | 90 nM | > 10000 nM | 480 nM
10 | Cc1ccccc1C(=O)NNC(=O)C1(C(=O)N[C@H]2CC(=O)OC2O)CCC1 (stereo not given in full) | 310 nM | 310 nM | > 10000 nM | 610 nM
11 | Cc1ccc(C(=O)NNC(=O)C2(C(=O)N[C@H]3CC(=O)OC3O)CCC2)cc1 (stereo not given in full) | 580 nM | 4300 nM | > 10000 nM | 6900 nM
12 | Cc1cccc(C(=O)NNC(=O)C2(C(=O)N[C@H]3CC(=O)OC3O)CCC2)c1 (stereo not given in full) | 150 nM | 2700 nM | > 10000 nM | 620 nM
13 | O=C1C[C@H](NC(=O)C2(C(=O)NNC(=O)c3cccc4ccccc34)CCC2)C(O)O1 (stereo not given in full) | 50 nM | 130 nM | > 10000 nM | 470 nM
14 | Cc1cccc(C(=O)NNC(=O)C2(C(=O)N[C@H]3CC(=O)OC3O)CCCCC2)c1 (stereo not given in full) | 430 nM | 3900 nM | > 10000 nM | 470 nM
15 | COc1cccc(OC)c1C(=O)NNC(=O)C1(C(=O)N[C@H]2CC(=O)OC2O)CCCCC1 (stereo not given in full) | 700 nM | 300 nM | > 10000 nM | ≥ 2500 nM
16 | O=C1C[C@H](NC(=O)C2(C(=O)NNC(=O)c3ccc4ccccc4c3)CCCC2)C(O)O1 (stereo not given in full) | 150 nM | 3200 nM | > 10000 nM | 570 nM
17 | COc1cccc(C(=O)NNC(=O)C2(C(=O)N[C@H]3CC(=O)OC3O)CCCCC2)c1 (stereo not given in full) | 240 nM | 1800 nM | > 10000 nM | 1300 nM
18 | COc1cccc(C(=O)NNC(=O)C2(C(=O)N[C@H]3CC(=O)OC3O)CCCC2)c1 (stereo not given in full) | 200 nM | 1170 nM | > 10000 nM | 550 nM
19 | COc1cccc(C(=O)NNC(=O)C2(C(=O)N[C@H]3CC(=O)OC3O)CC2)c1 (stereo not given in full) | ≥ 10000 nM | ≥ 10000 nM | > 10000 nM | ≥ 10000 nM
20 | COc1cccc(C(=O)NNC(=O)C2(C(=O)N[C@H]3CC(=O)OC3O)CCC2)c1 (stereo not given in full) | 260 nM | 2200 nM | > 10000 nM | 400 nM
21 | Cc1cccc(C(=O)NNC(=O)C2(C(=O)N[C@H]3CC(=O)OC3O)Cc3ccccc3C2)c1 (stereo not given in full) | 430 nM | 3120 nM | > 10000 nM | ≥ 2500 nM
22 | CCO[C@@H]1OC(=O)C[C@@H]1NC(=O)[C@@H]1CCCN2C(=O)CC[C@H](NC(=O)c3nccc4ccccc34)C(=O)N12 [PRALNACASAN] | 3.6 nM | 40 nM |  | 
